According to the supplement of paper PMC12463676, “Small-molecule dissolution of stress granules by redox modulation benefits ALS models” (Nature Chemical Biology, 2025):

Experiments:
lipoamide = compound: NC(=O)CCCCC1CCSS1 [lipoamide]; assay: thermal stability z-score vs DMSO; higher = more thermally stabilized by treatment; settings: HeLa, lipoamide concentration 100 µM
Experimental: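 Cellular thermal proteome profiling in HeLa cells. Cells were treated with 100 µM lipoamide for 1 h, with or without 1 mM arsenate for a further 1 h, then heated to ten temperatures (37-66.3 °C), and soluble protein was quantified by TMT mass spectrometry relative to 0.1% DMSO controls. The thermal stability score (sum of log2 fold changes minus the abundance score) was transformed to a z-score; mean of n = 3 experiments.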

potassium arsenate = compound: O=[As]([O-])(O)O.[K+] [potassium arsenate]; assay: as above; settings: HeLa; arsenate concentration 1 mM
Experimental: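 Cellular thermal proteome profiling in HeLa cells treated with 1 mM arsenate for 1 h (DMSO pretreatment), heated to ten temperatures (37-66.3 °C). Soluble protein was quantified by TMT mass spectrometry relative to DMSO controls; the thermal stability score was transformed to a z-score; mean of n = 3 experiments.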

[1] = arsenate co-treatment: 1 mM arsenate 1 h
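Also: each temperature applied for 3 min, abundance score taken as mean log2 fold change at the two lowest temperatures, z-score obtained by mean subtraction and division by SD.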

UniProt Q9NS91, sequence (Q9NS91 whole entry): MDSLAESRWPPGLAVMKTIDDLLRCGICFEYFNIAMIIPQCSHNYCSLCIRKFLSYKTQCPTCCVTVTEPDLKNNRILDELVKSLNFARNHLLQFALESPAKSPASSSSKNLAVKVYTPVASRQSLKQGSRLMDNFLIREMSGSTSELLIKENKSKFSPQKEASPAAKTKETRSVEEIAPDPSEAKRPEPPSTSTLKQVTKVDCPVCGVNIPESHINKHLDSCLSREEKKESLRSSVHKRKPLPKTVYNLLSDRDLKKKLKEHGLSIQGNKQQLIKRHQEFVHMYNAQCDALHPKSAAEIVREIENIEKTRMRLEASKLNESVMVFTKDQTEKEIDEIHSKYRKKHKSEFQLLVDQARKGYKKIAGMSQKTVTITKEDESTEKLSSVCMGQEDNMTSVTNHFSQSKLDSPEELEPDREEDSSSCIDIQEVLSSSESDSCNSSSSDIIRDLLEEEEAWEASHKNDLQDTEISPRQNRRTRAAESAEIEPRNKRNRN
UniProt O60231, sequence (O60231 whole entry): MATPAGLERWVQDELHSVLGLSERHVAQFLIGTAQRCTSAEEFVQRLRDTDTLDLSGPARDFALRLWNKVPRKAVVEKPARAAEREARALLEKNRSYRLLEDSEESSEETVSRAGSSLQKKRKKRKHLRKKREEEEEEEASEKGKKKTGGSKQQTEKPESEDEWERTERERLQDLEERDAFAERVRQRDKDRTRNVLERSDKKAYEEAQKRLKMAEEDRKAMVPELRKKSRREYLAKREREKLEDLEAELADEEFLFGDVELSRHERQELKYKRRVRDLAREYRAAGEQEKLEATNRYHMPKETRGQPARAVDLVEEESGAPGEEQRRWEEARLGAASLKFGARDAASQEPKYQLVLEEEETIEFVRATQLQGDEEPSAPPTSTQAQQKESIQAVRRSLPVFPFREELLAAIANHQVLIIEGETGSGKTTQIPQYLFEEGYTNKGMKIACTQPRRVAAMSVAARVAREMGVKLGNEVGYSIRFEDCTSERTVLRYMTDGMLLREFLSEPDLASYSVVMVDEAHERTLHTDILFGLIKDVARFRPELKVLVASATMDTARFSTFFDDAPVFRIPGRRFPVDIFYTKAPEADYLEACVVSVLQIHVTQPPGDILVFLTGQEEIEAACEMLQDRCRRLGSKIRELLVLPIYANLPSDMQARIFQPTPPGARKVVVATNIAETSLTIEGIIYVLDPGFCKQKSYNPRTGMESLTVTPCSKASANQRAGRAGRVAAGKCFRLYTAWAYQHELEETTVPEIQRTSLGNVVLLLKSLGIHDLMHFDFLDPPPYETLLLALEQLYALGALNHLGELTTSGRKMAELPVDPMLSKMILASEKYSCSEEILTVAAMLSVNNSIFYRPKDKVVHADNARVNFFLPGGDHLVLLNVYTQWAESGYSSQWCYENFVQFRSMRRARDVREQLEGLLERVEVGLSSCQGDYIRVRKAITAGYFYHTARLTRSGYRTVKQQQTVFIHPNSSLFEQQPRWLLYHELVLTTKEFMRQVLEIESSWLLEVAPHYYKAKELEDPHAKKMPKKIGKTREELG
UniProt Q6UUV7, sequence (Q6UUV7 whole entry): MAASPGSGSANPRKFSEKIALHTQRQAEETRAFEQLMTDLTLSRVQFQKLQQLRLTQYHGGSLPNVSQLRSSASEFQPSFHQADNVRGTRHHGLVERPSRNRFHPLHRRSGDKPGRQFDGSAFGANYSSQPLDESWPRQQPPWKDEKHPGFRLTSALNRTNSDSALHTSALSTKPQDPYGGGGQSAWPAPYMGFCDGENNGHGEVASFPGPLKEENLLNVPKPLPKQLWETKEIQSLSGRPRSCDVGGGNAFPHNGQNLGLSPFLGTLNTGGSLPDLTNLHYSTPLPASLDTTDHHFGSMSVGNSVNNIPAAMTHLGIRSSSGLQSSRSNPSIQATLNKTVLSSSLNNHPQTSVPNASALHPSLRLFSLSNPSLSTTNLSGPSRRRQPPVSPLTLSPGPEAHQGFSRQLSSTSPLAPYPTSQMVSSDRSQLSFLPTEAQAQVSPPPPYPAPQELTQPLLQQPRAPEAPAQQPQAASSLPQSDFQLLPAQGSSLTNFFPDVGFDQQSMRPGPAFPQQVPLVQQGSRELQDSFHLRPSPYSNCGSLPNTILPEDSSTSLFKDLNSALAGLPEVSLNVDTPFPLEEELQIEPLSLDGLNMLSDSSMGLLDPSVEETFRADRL
UniProt Q9UII4, sequence (Q9UII4 whole entry): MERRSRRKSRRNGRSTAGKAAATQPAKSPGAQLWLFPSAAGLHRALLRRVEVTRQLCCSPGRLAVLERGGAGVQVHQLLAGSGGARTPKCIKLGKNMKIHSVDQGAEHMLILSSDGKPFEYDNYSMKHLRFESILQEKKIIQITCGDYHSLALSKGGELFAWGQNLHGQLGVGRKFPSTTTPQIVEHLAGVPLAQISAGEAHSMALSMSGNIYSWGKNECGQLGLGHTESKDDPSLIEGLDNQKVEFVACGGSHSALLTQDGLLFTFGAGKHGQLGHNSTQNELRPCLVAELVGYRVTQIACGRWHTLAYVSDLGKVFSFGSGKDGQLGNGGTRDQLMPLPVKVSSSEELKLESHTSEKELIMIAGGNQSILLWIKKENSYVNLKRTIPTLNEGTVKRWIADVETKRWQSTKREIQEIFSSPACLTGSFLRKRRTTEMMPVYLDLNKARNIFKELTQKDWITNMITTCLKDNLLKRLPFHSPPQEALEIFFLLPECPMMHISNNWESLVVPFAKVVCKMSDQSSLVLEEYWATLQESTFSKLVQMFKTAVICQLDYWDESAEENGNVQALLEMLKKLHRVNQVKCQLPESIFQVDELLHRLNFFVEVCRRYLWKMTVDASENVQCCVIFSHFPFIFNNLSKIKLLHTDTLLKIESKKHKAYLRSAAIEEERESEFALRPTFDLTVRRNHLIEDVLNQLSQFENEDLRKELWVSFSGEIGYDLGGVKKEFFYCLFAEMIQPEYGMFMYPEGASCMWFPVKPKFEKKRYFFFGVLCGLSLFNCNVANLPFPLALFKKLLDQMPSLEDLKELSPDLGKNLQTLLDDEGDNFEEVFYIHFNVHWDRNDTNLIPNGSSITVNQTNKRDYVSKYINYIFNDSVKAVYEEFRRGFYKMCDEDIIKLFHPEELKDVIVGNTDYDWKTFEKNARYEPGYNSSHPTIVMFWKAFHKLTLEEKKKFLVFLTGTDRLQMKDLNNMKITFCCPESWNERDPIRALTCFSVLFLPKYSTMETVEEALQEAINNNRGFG
UniProt Q9H0W9, sequence (Q9H0W9 whole entry): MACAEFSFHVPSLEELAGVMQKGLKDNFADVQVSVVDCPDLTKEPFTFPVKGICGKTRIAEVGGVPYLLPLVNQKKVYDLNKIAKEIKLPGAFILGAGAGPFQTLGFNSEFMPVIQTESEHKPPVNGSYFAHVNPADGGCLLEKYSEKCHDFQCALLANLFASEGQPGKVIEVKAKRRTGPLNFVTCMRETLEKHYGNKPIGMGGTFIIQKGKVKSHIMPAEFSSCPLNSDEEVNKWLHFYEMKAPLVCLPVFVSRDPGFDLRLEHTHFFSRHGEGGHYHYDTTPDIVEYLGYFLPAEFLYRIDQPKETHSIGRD
UniProt P52943, sequence (P52943 whole entry): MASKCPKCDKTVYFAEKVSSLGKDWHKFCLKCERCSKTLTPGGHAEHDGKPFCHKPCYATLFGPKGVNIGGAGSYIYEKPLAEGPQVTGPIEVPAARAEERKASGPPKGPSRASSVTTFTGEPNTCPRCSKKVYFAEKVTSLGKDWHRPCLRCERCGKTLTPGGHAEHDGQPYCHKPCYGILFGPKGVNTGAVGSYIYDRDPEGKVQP
UniProt Q9H490, sequence (Q9H490 whole entry): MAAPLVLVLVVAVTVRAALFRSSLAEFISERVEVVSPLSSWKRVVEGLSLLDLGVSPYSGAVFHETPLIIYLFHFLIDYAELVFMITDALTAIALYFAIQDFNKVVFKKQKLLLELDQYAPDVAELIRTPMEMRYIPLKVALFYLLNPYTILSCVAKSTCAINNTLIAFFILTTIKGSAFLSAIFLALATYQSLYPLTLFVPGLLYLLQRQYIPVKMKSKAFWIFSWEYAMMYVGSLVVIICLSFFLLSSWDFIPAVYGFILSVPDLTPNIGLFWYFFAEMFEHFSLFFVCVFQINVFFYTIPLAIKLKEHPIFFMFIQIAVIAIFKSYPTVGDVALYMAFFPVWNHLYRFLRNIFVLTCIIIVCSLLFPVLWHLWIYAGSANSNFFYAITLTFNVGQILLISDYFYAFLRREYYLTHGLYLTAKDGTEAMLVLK
UniProt Q16576, sequence (Q16576 whole entry): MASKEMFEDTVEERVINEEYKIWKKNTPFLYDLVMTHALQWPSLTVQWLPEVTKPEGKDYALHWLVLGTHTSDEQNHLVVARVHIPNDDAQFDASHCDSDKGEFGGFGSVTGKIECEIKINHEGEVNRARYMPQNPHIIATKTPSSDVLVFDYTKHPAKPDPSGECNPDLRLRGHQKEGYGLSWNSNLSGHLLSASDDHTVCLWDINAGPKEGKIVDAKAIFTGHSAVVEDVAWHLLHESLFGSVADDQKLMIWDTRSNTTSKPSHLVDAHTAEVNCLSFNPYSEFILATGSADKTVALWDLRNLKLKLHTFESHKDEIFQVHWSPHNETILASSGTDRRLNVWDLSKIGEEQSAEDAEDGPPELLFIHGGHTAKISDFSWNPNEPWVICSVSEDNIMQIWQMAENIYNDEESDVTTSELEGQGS
UniProt P78549, sequence (P78549 whole entry): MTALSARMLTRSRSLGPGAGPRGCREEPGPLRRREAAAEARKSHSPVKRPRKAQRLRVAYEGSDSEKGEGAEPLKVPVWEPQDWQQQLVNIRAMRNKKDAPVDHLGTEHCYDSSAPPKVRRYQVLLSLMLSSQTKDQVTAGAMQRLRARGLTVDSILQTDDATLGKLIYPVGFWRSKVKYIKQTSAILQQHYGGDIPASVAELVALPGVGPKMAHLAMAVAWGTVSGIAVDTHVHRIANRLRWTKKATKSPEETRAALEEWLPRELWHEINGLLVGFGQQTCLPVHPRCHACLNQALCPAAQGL
UniProt O43920, sequence (O43920 whole entry): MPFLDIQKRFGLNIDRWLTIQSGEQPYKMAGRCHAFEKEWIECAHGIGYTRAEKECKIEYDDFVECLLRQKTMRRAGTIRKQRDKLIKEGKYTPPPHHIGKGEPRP

Target	thermal stability z-score (lipoamide; [1])	thermal stability z-score (lipoamide; arsenate co-treatment: none)	thermal stability z-score (potassium arsenate)
SSU72 (UniProt Q9NP77)	-0.256	-0.465	-0.473
CFL2 (UniProt Q9Y281)	0.497	0.000804	-0.466
CCDC53 (UniProt Q9Y3C0)	-0.425	-1.22	-0.495
CD97 (UniProt P48960)	0.325	0.346	0.472
KLHDC4 (UniProt Q8TBB5)	-0.895	-0.0677	-0.251
LDHB (UniProt P07195)	0.679	0.658	0.13
KIF2C (UniProt Q99661)	-0.47	-0.0787	0.56
CLTB (UniProt P09497)	1.48	1.89	0.557
MRPL17 (UniProt Q9NRX2)	0.0551	0.00699	-0.206
PRMT7 (UniProt Q9NVM4)	-0.363	0.259	1.47
ANAPC2 (UniProt Q9UJX6)	-0.312	-0.0871	0.093
STAG1 (UniProt Q8WVM7)	0.115	-0.148	-0.00763
KLF16 (UniProt Q9BXK1)	-0.384	0.0662	0.778
SUPT5H (UniProt O00267)	0.685	-0.0241	-0.186
CTNND1 (UniProt O60716)	0.292	0.231	-0.105
FXR2 (UniProt P51116)	0.0778	0.0347	0.783
PNKP (UniProt Q96T60)	-0.0218	-0.0196	-0.329
FOXO1 (UniProt Q12778)	-0.211	-0.123	0.182
PTRH1 (UniProt Q86Y79)	0.0851	0.0188	-0.214
DHX16 (UniProt O60231)	-0.223	0.345	-1.81
LETM1 (UniProt O95202)	0.0577	0.374	0.0137
RBBP7 (UniProt Q16576)	0.794	0.539	-0.595
WASL (UniProt O00401)	-0.128	0.327	-1.26
ATG9A (UniProt Q7Z3C6)	-0.389	-0.339	0.359

Target	thermal stability z-score (lipoamide; [1])	thermal stability z-score (lipoamide; arsenate co-treatment: none)	thermal stability z-score (potassium arsenate)
ESF1 (UniProt Q9H501)	0.105	0.129	0.24
C11ORF73 (UniProt Q53FT3)	0.0228	0.0059	-0.162
PSMC1 (UniProt P62191)	-0.269	-0.208	-0.724
SLC35E1 (UniProt Q96K37)	-2.03	-1.92	-1.27
ZFAND3 (UniProt Q9H8U3)	0.918	0.518	-1.25
POLR2C (UniProt P19387)	0.705	1.15	0.481
NTHL1 (UniProt P78549)	0.00215	-0.00667	-0.137
NUB1 (UniProt Q9Y5A7)	-0.391	0.421	1.15
HERC5 (UniProt Q9UII4)	0.139	0.601	0.512
CCNH (UniProt P51946)	-0.00877	0.0852	0.325
TXNRD1 (UniProt Q16881)	1.24	1.25	4.21
MET (UniProt P08581)	-0.338	-0.235	0.073
PIGU (UniProt Q9H490)	-0.834	-0.665	0.169
SGF29 (UniProt Q96ES7)	0.571	0.347	-1.03
THRAP3 (UniProt Q9Y2W1)	1.84	0.438	-0.985
NO66 (UniProt Q9H6W3)	0.635	0.483	0.842
LSM14B (UniProt Q9BX40)	-0.354	0.0171	0.218
WWTR1 (UniProt Q9GZV5)	-0.0845	-0.0566	0.377
SMC1A (UniProt Q14683)	0.323	0.28	-0.186
GLTP (UniProt Q9NZD2)	0.912	0.581	0.72
GNB1 (UniProt P62873)	0.979	0.0629	-0.776
CYB5R1 (UniProt Q9UHQ9)	1.47	0.244	-2.32
SCAP (UniProt Q12770)	-1.13	0.0662	-0.473
CRTC3 (UniProt Q6UUV7)	-0.316	-0.025	0.1

Target	thermal stability z-score (lipoamide; [1])	thermal stability z-score (lipoamide; arsenate co-treatment: none)	thermal stability z-score (potassium arsenate)
GPATCH11 (UniProt Q8N954)	-0.804	-0.268	0.108
GOLGA7 (UniProt Q7Z5G4)	-1.29	-0.742	-1.71
STAMBP (UniProt O95630)	-0.0484	-7.9e-05	1.23
RBM33 (UniProt Q96EV2)	0.0301	-0.534	-0.175
RAD18 (UniProt Q9NS91)	-0.082	-0.0293	-0.0799
IWS1 (UniProt Q96ST2)	-0.094	0.636	0.949
RPP25 (UniProt Q9BUL9)	-0.534	-0.856	-1.34
CRIP2 (UniProt P52943)	-0.0467	0.146	-0.637
CETN3 (UniProt O15182)	1.25	1.49	1.71
MANEAL (UniProt Q5VSG8)	-0.276	0.109	0.736
NDUFS5 (UniProt O43920)	-0.473	-0.963	0.133
GTPBP4 (UniProt Q9BZE4)	-0.6	0.00531	-1
GLA (UniProt P06280)	-1.1	-0.822	0.421
HOMER1 (UniProt Q86YM7)	0.64	0.353	1.54
MPZL2 (UniProt O60487)	0.503	-0.0637	-0.0559
YIF1B (UniProt Q5BJH7)	0.452	-0.197	0.898
DPM1 (UniProt O60762)	0.673	0.429	0.383
EIF2B3 (UniProt Q9NR50)	-0.44	0.0579	0.582
P1394_HsINTS1|INTS1	-0.0499	-0.0292	0.145
ARHGEF5 (UniProt Q12774)	-0.685	0.596	0.214
NUDT12 (UniProt Q9BQG2)	0.0414	0.0448	0.253
VWA5A (UniProt O00534)	-0.245	0.147	-0.235
C11ORF54 (UniProt Q9H0W9)	2.36	3.02	0.829
